Experimental data from patent US10131652B2, “Pyrimidinyloxy benzene derivatives as herbicides” (E. I. DU PONT DE NEMOURS AND COMPANY, priority 2014, dated 2018).
Like-named read-outs stand apart in the source and are kept apart here.

How the values were obtained:
Experiment in all cases: Test E pre-/postemergence plant response
Type in all cases: in vivo
[1] = test system: speedwell (bird's-eye speedwell, Veronica persica); settings: scale 0 to 100, read-out: Plant response rating, Speedwell; for pest or weed control at 16 g/ha: 16 g ai/ha; for pest or weed control at 62 g/ha: 62 g ai/ha; for pest or weed control at 125 g/ha: 125 g ai/ha
Outline: (§1)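 Pre-emergence: seeds sown in silt loam soil and sprayed with test chemicals in a non-phytotoxic solvent/surfactant mix. Post-emergence: plants at 2–18 cm (1- to 4-leaf stage) in peat/vermiculite medium treated with the same formulation. Visual rating versus controls after 7–21 days, 0 (no effect) to 100 (complete control).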

[2] = test system: green foxtail (Setaria viridis); settings: scale 0 to 100, read-out: Plant response rating, Foxtail, Green; for pest or weed control at 16 g/ha: 16 g ai/ha; for pest or weed control at 31 g/ha: 31 g ai/ha; for pest or weed control at 62 g/ha: 62 g ai/ha; for pest or weed control at 125 g/ha: 125 g ai/ha
Outline: as §1

[3] = test system: bluegrass (annual bluegrass, Poa annua); settings: scale 0 to 100, read-out: Plant response rating, Bluegrass; for pest or weed control at 16 g/ha: 16 g ai/ha; for pest or weed control at 31 g/ha: 31 g ai/ha; for pest or weed control at 62 g/ha: 62 g ai/ha; for pest or weed control at 125 g/ha: 125 g ai/ha
Outline: as §1

[4] = test system: downy bromegrass (Bromus tectorum); settings: scale 0 to 100, read-out: Plant response rating, Bromegrass, Downy; for pest or weed control at 16 g/ha: 16 g ai/ha; for pest or weed control at 31 g/ha: 31 g ai/ha; for pest or weed control at 62 g/ha: 62 g ai/ha; for pest or weed control at 125 g/ha: 125 g ai/ha
Outline: as §1

[5] = test system: chamomile (scentless chamomile, Matricaria inodora); settings: Tripleurospermum inodorum, scale 0 to 100, read-out: Plant response rating, Chamomile; for pest or weed control at 16 g/ha: 16 g ai/ha; for pest or weed control at 31 g/ha: 31 g ai/ha; for pest or weed control at 62 g/ha: 62 g ai/ha; for pest or weed control at 125 g/ha: 125 g ai/ha
Outline: as §1

[6] = test system: spring wheat (Triticum aestivum); settings: scale 0 to 100, read-out: Plant response rating, Wheat, Spring; for plant injury at 16 g/ha: 16 g ai/ha; for plant injury at 62 g/ha: 62 g ai/ha; for plant injury at 125 g/ha: 125 g ai/ha
Outline: as §1

kochia (Kochia scoparia) = settings: Bassia scoparia, scale 0 to 100, read-out: Plant response rating, Kochia; for pest or weed control at 16 g/ha: 16 g ai/ha; for pest or weed control at 31 g/ha: 31 g ai/ha; for pest or weed control at 62 g/ha: 62 g ai/ha; for pest or weed control at 125 g/ha: 125 g ai/ha
Outline: as §1

[7] = test system: field poppy (Papaver rhoeas); settings: scale 0 to 100, read-out: Plant response rating, Field Poppy; for pest or weed control at 16 g/ha: 16 g ai/ha; for pest or weed control at 31 g/ha: 31 g ai/ha; for pest or weed control at 62 g/ha: 62 g ai/ha; for pest or weed control at 125 g/ha: 125 g ai/ha
Outline: as §1

[8] = test system: winter wheat (Triticum aestivum); settings: scale 0 to 100, read-out: Plant response rating, Wheat, Winter; for plant injury at 16 g/ha: 16 g ai/ha; for plant injury at 62 g/ha: 62 g ai/ha; for plant injury at 125 g/ha: 125 g ai/ha
Outline: as §1

[9] = test system: wild mustard (Sinapis arvensis); settings: Brassica, scale 0 to 100, read-out: Plant response rating, Mustard, Wild; for pest or weed control at 16 g/ha: 16 g ai/ha; for pest or weed control at 31 g/ha: 31 g ai/ha; for pest or weed control at 62 g/ha: 62 g ai/ha; for pest or weed control at 125 g/ha: 125 g ai/ha
Outline: as §1

[10] = test system: oilseed rape (Brassica napus); settings: scale 0 to 100, read-out: Plant response rating, Oilseed Rape; for plant injury at 16 g/ha: 16 g ai/ha; for plant injury at 31 g/ha: 31 g ai/ha; for plant injury at 62 g/ha: 62 g ai/ha; for plant injury at 125 g/ha: 125 g ai/ha
Outline: as §1

[11] = post-emergence, 31 g ai/ha, Postemergence

Fc1cccc(Oc2ncc(Br)cn2)c1-c1cc(C(F)F)no1 [Compound 145, 5-bromo-2-[2-[3-(difluoromethyl)-5-isoxazolyl]-3-fluorophenoxy]pyrimidine]
pest or weed control at 16 g/ha ([1]; post-emergence, Postemergence): 100%
pest or weed control at 31 g/ha [1, 11]: 100%
pest or weed control at 62 g/ha ([1]; post-emergence, Postemergence): 100%
pest or weed control at 125 g/ha ([1]; post-emergence, Postemergence): 100%
pest or weed control at 16 g/ha ([1]; pre-emergence, Preemergence): 95%
pest or weed control at 62 g/ha ([1]; pre-emergence, Preemergence): 100%
pest or weed control at 125 g/ha ([1]; pre-emergence, Preemergence): 100%
pest or weed control at 16 g/ha ([2]; post-emergence, Postemergence): 15%
pest or weed control at 31 g/ha ([2]; post-emergence, Postemergence): 30%
pest or weed control at 62 g/ha ([2]; post-emergence, Postemergence): 40%
pest or weed control at 125 g/ha ([2]; post-emergence, Postemergence): 98%
pest or weed control at 16 g/ha ([2]; pre-emergence, Preemergence): 0%
pest or weed control at 31 g/ha ([2]; pre-emergence, Preemergence): 45%
pest or weed control at 62 g/ha ([2]; pre-emergence, Preemergence): 55%
pest or weed control at 125 g/ha ([2]; pre-emergence, Preemergence): 100%
pest or weed control at 16 g/ha ([3]; post-emergence, Postemergence): 15%
pest or weed control at 31 g/ha ([3]; post-emergence, Postemergence): 60%
pest or weed control at 62 g/ha ([3]; post-emergence, Postemergence): 65%
pest or weed control at 125 g/ha ([3]; post-emergence, Postemergence): 70%
pest or weed control at 16 g/ha ([3]; pre-emergence, Preemergence): 0%
pest or weed control at 31 g/ha ([3]; pre-emergence, Preemergence): 0%
pest or weed control at 62 g/ha ([3]; pre-emergence, Preemergence): 10%
pest or weed control at 125 g/ha ([3]; pre-emergence, Preemergence): 90%
pest or weed control at 16 g/ha ([4]; post-emergence, Postemergence): 25%
pest or weed control at 31 g/ha ([4]; post-emergence, Postemergence): 35%
pest or weed control at 62 g/ha ([4]; post-emergence, Postemergence): 55%
pest or weed control at 125 g/ha ([4]; post-emergence, Postemergence): 55%
pest or weed control at 16 g/ha ([4]; pre-emergence, Preemergence): 10%
pest or weed control at 31 g/ha ([4]; pre-emergence, Preemergence): 20%
pest or weed control at 62 g/ha ([4]; pre-emergence, Preemergence): 35%
pest or weed control at 125 g/ha ([4]; pre-emergence, Preemergence): 60%
pest or weed control at 16 g/ha ([5]; post-emergence, Postemergence): 20%
pest or weed control at 31 g/ha ([5]; post-emergence, Postemergence): 30%
pest or weed control at 62 g/ha ([5]; post-emergence, Postemergence): 30%
pest or weed control at 125 g/ha ([5]; post-emergence, Postemergence): 30%
pest or weed control at 16 g/ha ([5]; pre-emergence, Preemergence): 5%
pest or weed control at 31 g/ha ([5]; pre-emergence, Preemergence): 100%
pest or weed control at 62 g/ha ([5]; pre-emergence, Preemergence): 100%
pest or weed control at 125 g/ha ([5]; pre-emergence, Preemergence): 100%
plant injury at 16 g/ha ([6]; post-emergence, Postemergence): 30%
plant injury at 31 g/ha [6, 11]: 35%
plant injury at 62 g/ha ([6]; post-emergence, Postemergence): 45%
plant injury at 125 g/ha ([6]; post-emergence, Postemergence): 55%
plant injury at 16 g/ha ([6]; pre-emergence, Preemergence): 15%
plant injury at 62 g/ha ([6]; pre-emergence, Preemergence): 20%
plant injury at 125 g/ha ([6]; pre-emergence, Preemergence): 70%
pest or weed control at 16 g/ha (kochia (Kochia scoparia); post-emergence, Postemergence): 98%
pest or weed control at 31 g/ha (kochia (Kochia scoparia); post-emergence, Postemergence): 100%
pest or weed control at 62 g/ha (kochia (Kochia scoparia); post-emergence, Postemergence): 100%
pest or weed control at 125 g/ha (kochia (Kochia scoparia); post-emergence, Postemergence): 100%
pest or weed control at 16 g/ha (kochia (Kochia scoparia); pre-emergence, Preemergence): 60%
pest or weed control at 31 g/ha (kochia (Kochia scoparia); pre-emergence, Preemergence): 100%
pest or weed control at 62 g/ha (kochia (Kochia scoparia); pre-emergence, Preemergence): 100%
pest or weed control at 125 g/ha (kochia (Kochia scoparia); pre-emergence, Preemergence): 100%
pest or weed control at 16 g/ha ([7]; post-emergence, Postemergence): 100%
pest or weed control at 31 g/ha ([7]; post-emergence, Postemergence): 100%
pest or weed control at 62 g/ha ([7]; post-emergence, Postemergence): 100%
pest or weed control at 125 g/ha ([7]; post-emergence, Postemergence): 100%
pest or weed control at 16 g/ha ([7]; pre-emergence, Preemergence): 100%
pest or weed control at 31 g/ha ([7]; pre-emergence, Preemergence): 100%
pest or weed control at 62 g/ha ([7]; pre-emergence, Preemergence): 100%
pest or weed control at 125 g/ha ([7]; pre-emergence, Preemergence): 100%
plant injury at 16 g/ha ([8]; post-emergence, Postemergence): 15%
plant injury at 31 g/ha [8, 11]: 20%
plant injury at 62 g/ha ([8]; post-emergence, Postemergence): 35%
plant injury at 125 g/ha ([8]; post-emergence, Postemergence): 55%
plant injury at 16 g/ha ([8]; pre-emergence, Preemergence): 0%
plant injury at 62 g/ha ([8]; pre-emergence, Preemergence): 25%
plant injury at 125 g/ha ([8]; pre-emergence, Preemergence): 75%
pest or weed control at 16 g/ha ([9]; post-emergence, Postemergence): 100%
pest or weed control at 31 g/ha ([9]; post-emergence, Postemergence): 100%
pest or weed control at 62 g/ha ([9]; post-emergence, Postemergence): 100%
pest or weed control at 125 g/ha ([9]; post-emergence, Postemergence): 100%
pest or weed control at 16 g/ha ([9]; pre-emergence, Preemergence): 95%
pest or weed control at 31 g/ha ([9]; pre-emergence, Preemergence): 100%
pest or weed control at 62 g/ha ([9]; pre-emergence, Preemergence): 100%
pest or weed control at 125 g/ha ([9]; pre-emergence, Preemergence): 100%
plant injury at 16 g/ha ([10]; post-emergence, Postemergence): 70%
plant injury at 31 g/ha ([10]; post-emergence, Postemergence): 100%
plant injury at 62 g/ha ([10]; post-emergence, Postemergence): 100%
plant injury at 125 g/ha ([10]; post-emergence, Postemergence): 100%
plant injury at 16 g/ha ([10]; pre-emergence, Preemergence): 50%
plant injury at 31 g/ha ([10]; pre-emergence, Preemergence): 100%
plant injury at 62 g/ha ([10]; pre-emergence, Preemergence): 100%
plant injury at 125 g/ha ([10]; pre-emergence, Preemergence): 100%
